Paper PMC6222382, “A Potent Tyrosinase Inhibitor, (E)-3-(2,4-Dihydroxyphenyl)-1-(thiophen-2-yl)prop-2-en-1-one, with Anti-Melanogenesis Properties in α-MSH and IBMX-Induced B16F10 Melanoma Cells” (Molecules : A Journal of Synthetic Chemistry and Natural …, 2018)
Where two headings read alike, the source gives them in different places.

Assays:
mushroom tyrosinase [1] = assay: Mushroom tyrosinase inhibitory assay (L-tyrosine or L-DOPA as substrate); assay type: biochemical; conditions: for tyrosinase inhibitory activity toward L-DOPA (in words): at any of the tested concentrations; for IC50: mean ± SEM of triplicate experiments
Procedure: The reaction mixtures were keep warm at 37 °C for 20 min. The absorbance of the mixture at 492 nm was measured using a microplate reader. The tyrosinase inhibitory activity (%) was calculated as (1 − Abssample/Abscontrol) × 100%.

B16F10 melanoma cells [2] = assay: Cell viability, EZ-Cytox assay; assay type: cell-based, murine; conditions: concentrations up to 100 μM, 48 h
Procedure: (§1) Murine melanoma B16F10 cells were purchased from the Korean Cell Line Bank (Seoul, Korea). The cells were cultured in DMEM containing 10% FBS and 1% streptomycin, and then incubated at 37 °C with 5% CO2. The melanoma cells were plated at 95% confluency for all the experiments.
Cell viability was assessed with the EZ-Cytox assay kit (Daeillab Service, Seoul, Korea) as previously described. In brief, B16F10 cells were seeded in 96-well plates (Corning, NY, USA) at a density of 1 × 10^4 cells/well for 24 h. The cells were fed fresh, serum-free DMEM that contained different concentrations (up to 100 μM) of 1c, and incubated for 24 h or 48 h. Then, 10 μL EZ-Cytox solution was added to each well and the cells were incubated for 2–4 h. The absorbance of cells in the absence of treatment was regarded as 100% cell survival. […] Thus, CC50 value of 1c were calculated by regression analysis.

[3] = test system: intracellular tyrosinase in B16F10 melanoma cells; assay: Cellular tyrosinase activity assay in α-MSH and IBMX-induced B16F10 melanoma cells (L-DOPA oxidation); assay type: cell-based, murine; conditions: α-MSH (5 μM) and IBMX (200 μM), 48 h, α-MSH and IBMX alone 310.39%
Procedure: as §1
Intracellular tyrosinase inhibitory activity assay was achieved by measuring the rate of oxidation of L-DOPA [44]. Cells at a density of 1 × 10^5 cells/well were plated in 6-well plates (Nunc, Denmark) and incubated overnight. […] The cells were washed with PBS and lysed in a solution containing 100 µL of 50 mM phosphate buffer (pH 6.5), 0.1 mM phenylmethylsulfonylfluoride (PMSF), and 1% Triton X-100. The cells lysates were employed in a deep freezer (−80 °C) for 1 h. After defrosting the cell lysates, the cellular extracts were purified by centrifugation at 12,000 rpm for 30 min at 4 °C. A total of 80 µL of supernatant and 20 µL of L-DOPA (2 mg/mL) were added to a 96-well plate, and the absorbance at a wavelength of 492 nm was measured every 10 min during 1 h using an ELISA plate reader (TECAN, Salzburg, Austria). Total protein content was determined using BCA protein assay reagent (Thermo Scientific, Rockford, IL, USA).

B16F10 melanoma cells [4] = assay: Melanin contents in α-MSH and IBMX-induced B16F10 melanoma cells; assay type: cell-based, murine; conditions: α-MSH (5 μM) and IBMX (200 μM), 48 h, α-MSH and IBMX alone 171.30%
Procedure: as §1
Cellular melanin content was determined as described previously. Cells were seeded in six-well culture plates (Nunc, Denmark) at 2 × 10^5 cells/well for 24 h. […] Cells were washed twice with PBS. After centrifugation, cell pellets were disrupted in 100 μL of 1N NaOH, and incubated at 60 °C for 1 h and mixed to solubilize the melanin. Absorbance at 405 nm was compared with a standard curve for synthetic melanin (TECAN, Salzburg, Austria).

mushroom tyrosinase [5] = assay: Enzyme kinetic analysis in mushroom tyrosinase inhibition (Lineweaver-Burk and Dixon plots); assay type: biochemical; conditions: for Ki: Dixon plot; for Inhibition type: Lineweaver-Burk plot
Procedure: In order to estimate the kinetic mechanism, two kinetic methods using Lineweaver-Burk and Dixon plots were used. Using Lineweaver-Burk double reciprocal plots [a plot of 1/enzyme velocity (1/V) vs. 1/substrate concentration (1/[S])], the type of inhibition was determined using various concentrations of L-tyrosine (0.5, 1 and 2 mM) and L-DOPA (0.5, 1, and 2 mM), as substrates, in the absence and presence of various concentrations of 1c (3.2–80 nM; for L-tyrosine, 0.4–10 μM; for L-DOPA). […] The concentrations of 1c were as follows: 3.2–80 nM; for L-tyrosine, 0.4–10 μM; for L-DOPA. The enzymatic procedures comprised of the formerly described tyrosinase test methods. The inhibition constant (Ki) was resolute using Dixon plots.

[6] = substrate L-DOPA, read-out: IC50 (μM), L-DOPA as substrate (diphenolase / dopa oxidase)
[7] = substrate L-tyrosine, read-out: IC50 (μM), L-tyrosine as substrate (monophenolase / tyrosine hydroxylase)

Row | melting point | tyrosinase inhibitory activity toward L-DOPA (in words) (mushroom tyrosinase [1]; substrate L-DOPA) | IC50 (mushroom tyrosinase [1]; [6]) | IC50 (mushroom tyrosinase [1]; [7]) | Compound | further results
1 | 143.6 to 147.3 °C | did not inhibit tyrosinase activity | > 200 µM | 77.9 ± 8.74 µM | COc1cc(/C=C/C(=O)c2cccs2)cc(OC)c1O [1f, (E)-3-(4-Hydroxy-3,5-dimethoxyphenyl)-1-(thiophen-2-yl)prop-2-en-1-one] | –
2 | 182.5 to 185.7 °C | – | 103 ± 8.47 µM | 75.7 ± 2.46 µM | O=C(/C=C/c1ccc(O)c(O)c1)c1cccs1 [1b, (E)-3-(3,4-Dihydroxyphenyl)-1-(thiophen-2-yl)prop-2-en-1-one] | –
3 | – | – | 60.1 ± 7.85 µM | 46.2 ± 0.55 µM | O=C(/C=C/c1ccc(O)cc1)c1cccs1 [1a, (E)-3-(4-Hydroxyphenyl)-1-(thiophen-2-yl)prop-2-en-1-one] | –
4 | 132.8 to 135.2 °C | did not inhibit tyrosinase activity | > 200 µM | 98.8 ± 2.11 µM | COc1cc(/C=C/C(=O)c2cccs2)ccc1O [1d, (E)-3-(4-Hydroxy-3-methoxyphenyl)-1-(thiophen-2-yl)prop-2-en-1-one] | –
5 | – | – | 0.93 ± 0.22 µM | – | O=C(/C=C/c1ccc(O)cc1O)c1cccs1 [1c, (E)-3-(2,4-Dihydroxyphenyl)-1-(thiophen-2-yl)prop-2-en-1-one] | cytotoxicity (cell viability) (B16F10 melanoma cells [2]): did not show any cytotoxicity; intracellular tyrosinase activity ([3]; 0.04 μM): 225.78%; intracellular tyrosinase activity ([3]; 0.2 μM): 157.79%; intracellular tyrosinase activity ([3]; 1 μM): 132.71%; melanin contents (B16F10 melanoma cells [4]; 0.04 μM): 107.29%; melanin contents (B16F10 melanoma cells [4]; 0.2 μM): 98.15%; melanin contents (B16F10 melanoma cells [4]; 1 μM): 88.09%; Ki (mushroom tyrosinase [5]; substrate L-DOPA): 1.76 µM; Inhibition type (mushroom tyrosinase [5]; substrate L-DOPA): competitive inhibition; Ki (mushroom tyrosinase [5]; substrate L-tyrosine): 0.00501 µM; Inhibition type (mushroom tyrosinase [5]; substrate L-tyrosine): competitive inhibition
6 | – | – | 28.7 ± 1.98 µM | 17.4 ± 1.81 µM | COc1ccc(/C=C/C(=O)c2cccs2)cc1O [1e, (E)-3-(3-Hydroxy-4-methoxyphenyl)-1-(thiophen-2-yl)prop-2-en-1-one] | –
7 | – | – | – | – | O=c1cc(CO)occ1O [Kojic acid, kojic acid, reference compound] | intracellular tyrosinase activity ([3]; 10 μM): 225.54%; melanin contents (B16F10 melanoma cells [4]; 10 μM): 118.19%
8 | 269.3 to 272 °C | did not inhibit tyrosinase activity | > 200 µM | – | O=C(/C=C/c1cc(Br)c(O)c(Br)c1)c1cccs1 [1h, (E)-3-(3,5-Dibromo-4-hydroxyphenyl)-1-(thiophen-2-yl)prop-2-en-1-one] | tyrosinase inhibitory activity toward L-tyrosine (in words) (mushroom tyrosinase [1]; substrate L-tyrosine): inactive
9 | 195.2 to 199.6 °C | – | 112 ± 14.3 µM | – | O=C(/C=C/c1ccc(O)c(Br)c1)c1cccs1 [1g, (E)-3-(3-Bromo-4-hydroxyphenyl)-1-(thiophen-2-yl)prop-2-en-1-one] | tyrosinase inhibitory activity toward L-tyrosine (in words) (mushroom tyrosinase [1]; substrate L-tyrosine): inactive
